The values below come from patent US11136348B2, “Furostan-3-ol derivatives as skeletal muscle hypertrophic agents” (EMMYON, INC., priority 2015, dated 2021).

One assay has as its system C2C12 skeletal myotubes. Briefly: Total cellular protein content in C2C12 skeletal myotubes (BCA). Format: cell-based, Mouse. Conditions: 48 h incubation, vs vehicle (0.1% DMSO); for Percent change in total protein at 0.03 µM / Percent change in total protein at 0.1 µM / Percent change in total protein at 0.3 µM / Percent change in total protein at 1 µM / Percent change in total protein at 3 µM: Mus musculus, C2C12. How it is done: The compounds were tested in a well-established in vitro model of skeletal muscle, namely fully differentiated, post-mitotic C2C12 skeletal myotubes. Mouse C2C12 myoblasts may be obtained from ATCC (CRL-1772) and maintained at 37° C. and 5% CO2 in Dulbecco's modified Eagle's medium (ATCC #30-2002) containing antibiotics (100 units/mL penicillin, […] streptomycin sulfate) and 10% (v/v) fetal bovine serum (FBS). Myoblasts were set up for experiments on day 0 in 6-well plates at a density of 2.5×10^5 cells/well. On day 2, myoblasts were induced to differentiate into myotubes by replacing 10% FBS with 2% horse serum (HS). On day 7, myotubes were rinsed once with PBS, and then 2% HS was replaced with 10% FBS. The vehicle (0.1% DMSO) or varying concentrations of test compound were added directly to the media. After 48 h incubation, myotube protein content and size were measured.
To determine myotube protein content, myotubes were washed with ice cold PBS, scraped into lysis buffer (10 mM Tris-HCl, pH 7.6, 100 mM NaCl, and 1% (w/v) SDS, complete Mini protease inhibitor cocktail (Roche), and a 1:100 dilution of phosphatase inhibitor cocktail 3 (Sigma)), and then lysed with 10 passes through a 22-gauge needle. An aliquot of each myotube lysate sample was then used to determine protein concentration by the BCA kit (Pierce). […] To determine myotube size, myotubes were subjected to immunofluorescence staining with anti-troponin primary antibody and a fluorescent secondary antibody. Myotubes were then imaged on an Olympus IX-71 microscope equipped with a DP-70 camera and epifluorescence filters. Image analysis was performed using ImageJ software.

Assay [1] concerns Male C57BL/6 mice, tibialis anterior (TA) muscle. Briefly: Mouse model of muscular atrophy: unilateral tibialis anterior immobilization. Format: in vivo. Conditions: 10 mg/kg i.p. twice a day for 7 days; 6 days TA immobilization; immobilized TA weight normalized to contralateral mobile TA; 12-13 mice. How it is done:
Compounds of the invention were also tested in vivo in an established mouse model for muscular atrophy. Male C57BL/6 mice (8-10 weeks old) were administered i.p. injections of vehicle (corn oil) or 10 mg/kg test compound twice a day for 7 days. After 1 day of i.p. injections, one tibialis anterior (TA) muscle in each mouse was immobilized with a metal clip to induce skeletal muscle atrophy, as described previously (Dyle et al., Journal of Biological Chemistry 289: 14913-14924, 2014). In each mouse, the contralateral TA muscle remained mobile and served as a non-atrophied intrasubject control. After 7 days of i.p injections (6 days of unilateral TA immobilization), bilateral TA muscles were harvested and weighed. In each mouse, the amount of skeletal muscle loss in the immobilized TA muscle was determined by normalizing the weight of the immobilized TA muscle to the weight of the contralateral mobile (control) TA muscle. The data below are means ±SEM from 12-13 mice per condition. table: […]

Take `CC(=O)NC[C@@H](C)CCC1=C(C)[C@H]2[C@H](C[C@H]3[C@@H]4CC[C@H]5C[C@@H](OC(C)=O)CC[C@]5(C)[C@H]4CC[C@@]32C)O1` [Example 1, (2aS,4S,6aS,6bS,8aS,8bS,11aS,12aS,12bR)-10-((S)-4-acetamido-3-methylbutyl)-6a,8a,9-trimethyl-2,2a,3,4,5,6,6a,6b,7,8,8a,8b,11a,12,12a,12b-hexadecahydro-1H-naphtho[2′,1′:4,5]indeno[2,1-b]furan-4-yl acetate]: the Percent change in total protein at 0.03 µM in the assay on C2C12 skeletal myotubes (0.03 μM) turned out to be 1 ± 1.1%. Besides, the Percent change in total protein at 0.1 µM in the assay with C2C12 skeletal myotubes (0.1 μM) was determined as 5.6 ± 3.3%. Further, in the assay on C2C12 skeletal myotubes (0.3 μM), the Percent change in total protein at 0.3 µM was 10.7 ± 1.9%. Also, the Percent change in total protein at 1 µM in the assay with C2C12 skeletal myotubes (1 μM) amounted to 16.7 ± 1.3%. In addition, the Percent change in total protein at 3 µM in the assay with C2C12 skeletal myotubes (3 μM) came to 18.1 ± 0.5%. Moreover, in assay [1], the “% Muscle Loss (Mean ± SEM)” value amounted to 4.8 ± 1.4%.

Take `CC1=C(CC[C@H](C)CNC(=O)OC(C)(C)C)O[C@H]2C[C@H]3[C@@H]4CC[C@H]5C[C@@H](O)CC[C@]5(C)[C@H]4CC[C@]3(C)[C@@H]12` [Example 2, tert-Butyl ((S)-4-((2aS,4S, 6aS,6bS, 8aS, 8bS,11aS,12aS,12bR)-4-hydroxy-6a, 8a,9-trimethyl-2,2a,3 ,4,5,6,6a,6b,7,8,8a, 8b,11a,12,12a,12b-hexadecahydro-1H-naphtho[2′,1′:4,5]indeno[2,1-b]furan-10-yl)-2-methylbutyl)carbamate]: the Percent change in total protein at 0.03 µM in the assay with C2C12 skeletal myotubes (0.03 μM) worked out at 3.2 ± 2.1%. Also, the Percent change in total protein at 0.1 µM with C2C12 skeletal myotubes (0.1 μM) was 3.2 ± 3%. In addition, in the assay on C2C12 skeletal myotubes (0.3 μM), the Percent change in total protein at 0.3 µM turned out to be 4.9 ± 3.9%. Also, in the assay with C2C12 skeletal myotubes (1 μM), the Percent change in total protein at 1 µM was found to be 8.3 ± 3.8%. The Percent change in total protein at 3 µM in the assay with C2C12 skeletal myotubes (3 μM) was 10.8 ± 3%. The “% Muscle Loss (Mean ± SEM)” value in assay [1] is on record as 8.6 ± 1.8%.

`CC(=O)O[C@H]1CC[C@@]2(C)[C@@H](CC[C@@H]3[C@@H]2CC[C@@]2(C)[C@H]3C[C@@H]3OC(CC[C@H](C)CNC(=O)OC(C)(C)C)=C(C)[C@@H]32)C1` [Example 4, (2aS,4S,6aS,6bS,8aS,8bS,11aS,12aS,12bR)-10-((S)-4-((tert-butoxycarbonyl)amino)-3-methylbutyl)-6a,8a,9-trimethyl-2,2a,3,4,5,6,6a,6b,7,8,8a,8b,11a,12,12a,12b-hexadecahydro-1H-naphtho[2′,1′:4,5]indeno[2,1-b]furan-4-yl acetate acetate]: the Percent change in total protein at 0.03 µM in the assay with C2C12 skeletal myotubes (0.03 μM) stood at 4.3 ± 1.6%. The Percent change in total protein at 0.1 µM in the assay on C2C12 skeletal myotubes (0.1 μM) stood at 4 ± 2.1%. In the assay on C2C12 skeletal myotubes (0.3 μM), the Percent change in total protein at 0.3 µM came out at 11.2 ± 2.3%. Besides, in the assay on C2C12 skeletal myotubes (1 μM), the Percent change in total protein at 1 µM is 13.4 ± 1.5%. The Percent change in total protein at 3 µM in the assay on C2C12 skeletal myotubes (3 μM) stood at 11.4 ± 2.9%.

`CC1=C(CC[C@H](C)CNC(=O)OCC(C)C)O[C@H]2C[C@H]3[C@@H]4CC[C@H]5C[C@@H](O)CC[C@]5(C)[C@H]4CC[C@]3(C)[C@@H]12` [Example 6, Isobutyl ((S)-4-((2aS,4S,6aS,6bS, 8aS, 8bS,11aS,12aS,12bR)-4-hydroxy-6a, 8a,9-trimethyl-2,2a,3,4,5,6,6a,6b,7,8,8a, 8b,11a,12,12a,12b-hexadecahydro-1H-naphtho[2′,1′:4,5]indeno[2,1-b]furan-10-yl)-2-methylbutyl)carbamate]: in the assay on C2C12 skeletal myotubes (0.03 μM), the Percent change in total protein at 0.03 µM came to 1.1 ± 0.8%. Further, the Percent change in total protein at 0.1 µM in the assay with C2C12 skeletal myotubes (0.1 μM) was -0.1 ± 3.1%. Besides, the Percent change in total protein at 0.3 µM in the assay with C2C12 skeletal myotubes (0.3 μM) was found to be 4.2 ± 3.2%. The Percent change in total protein at 1 µM in the assay on C2C12 skeletal myotubes (1 μM) is 10.9 ± 3.1%. The Percent change in total protein at 3 µM in the assay with C2C12 skeletal myotubes (3 μM) amounted to 9 ± 1.6%.

Turning to `CC1=C(CC[C@H](C)CNC(C)C)O[C@H]2C[C@H]3[C@@H]4CC[C@H]5C[C@@H](O)CC[C@]5(C)[C@H]4CC[C@]3(C)[C@@H]12` [Example 7, (2aS,4S,6aS,6bS,8aS,8bS,11aS,12aS,12bR)-10-((S)-4-(Isopropylamino)-3-methylbutyl)-6a,8a,9-trimethyl-2,2a,3,4,5,6,6a,6b,7,8,8a,8b,11a,12,12a,12b-hexadecahydro-1H-naphtho[2′,1′:4,5]indeno[2,1-b]furan-4-ol], the Percent change in total protein at 0.03 µM in the assay on C2C12 skeletal myotubes (0.03 μM) is -0.9 ± 1.5%. Besides, the Percent change in total protein at 0.1 µM in the assay with C2C12 skeletal myotubes (0.1 μM) is 0.5 ± 1.9%. For the same molecule, in the assay on C2C12 skeletal myotubes (0.3 μM), the Percent change in total protein at 0.3 µM was 11.6 ± 2.3%. For the same molecule, in the assay with C2C12 skeletal myotubes (1 μM), the Percent change in total protein at 1 µM was determined as 11 ± 1.9%. Besides, in the assay on C2C12 skeletal myotubes (3 μM), the Percent change in total protein at 3 µM amounted to 12.2 ± 3.2%.

Turning to `CC1=C(CC[C@H](C)CN(C)C)O[C@H]2C[C@H]3[C@@H]4CC[C@H]5C[C@@H](O)CC[C@]5(C)[C@H]4CC[C@]3(C)[C@@H]12` [Example 8, (2aS,4S,6aS,6bS,8aS,8bS,11aS,12aS,12bR)-10-((S)-4-(Dimethylamino)-3-methylbutyl)-6a,8a,9-trimethyl-2,2a,3,4,5,6,6a,6b,7,8,8a,8b,11a,12,12a,12b-hexadecahydro-1H-naphtho[2′,1′:4,5]indeno[2,1-b]furan-4-ol], the Percent change in total protein at 0.03 µM with C2C12 skeletal myotubes (0.03 μM) amounted to 0.5 ± 2.1%. Further, the Percent change in total protein at 0.1 µM in the assay on C2C12 skeletal myotubes (0.1 μM) worked out at 5 ± 1.9%. For the same molecule, in the assay with C2C12 skeletal myotubes (0.3 μM), the Percent change in total protein at 0.3 µM stood at 9.7 ± 0.7%. Besides, the Percent change in total protein at 1 µM in the assay on C2C12 skeletal myotubes (1 μM) is 10.7 ± 1.6%. The Percent change in total protein at 3 µM in the assay on C2C12 skeletal myotubes (3 μM) came out at 9.1 ± 1.2%.

As to `CC1=C(CC[C@H](C)CNC(C)C(F)F)O[C@H]2C[C@H]3[C@@H]4CC[C@H]5C[C@@H](O)CC[C@]5(C)[C@H]4CC[C@]3(C)[C@@H]12` (stereo partly drawn) [Example 9, (2aS,4S,6aS,6bS,8aS,8bS,11aS,12aS,12bR)-10-((3S)-4-((1,1-Difluoropropan-2-yl)amino)-3-methylbutyl)-6a,8a,9-trimethyl-2,2a,3,4,5,6,6a,6b,7,8,8a,8b,11a,12,12a,12b-hexadecahydro-1H-naphtho[2′,1′:4,5]indeno[2,1-b]furan-4-ol], the Percent change in total protein at 0.03 µM with C2C12 skeletal myotubes (0.03 μM) is -1.5 ± 2.3%. Besides, in the assay on C2C12 skeletal myotubes (0.1 μM), the Percent change in total protein at 0.1 µM was 1.2 ± 0.7%. Moreover, in the assay with C2C12 skeletal myotubes (0.3 μM), the Percent change in total protein at 0.3 µM was determined as 8.6 ± 2.5%. Also, the Percent change in total protein at 1 µM in the assay on C2C12 skeletal myotubes (1 μM) turned out to be 6.2 ± 2.1%. Further, the Percent change in total protein at 3 µM in the assay with C2C12 skeletal myotubes (3 μM) is 6.9 ± 2.6%.

As to `CC1=C(CC[C@H](C)CNC(=O)OC(C)(C)C)O[C@H]2C[C@H]3[C@@H]4CC[C@H]5CC(NCCO)CC[C@]5(C)[C@H]4CC[C@]3(C)[C@@H]12` (stereo partly drawn) [Example 10, tert-Butyl ((2S)-4-((2aS,6aS,6bS,8aS,8bS,11aS,12aS,12bR)-4-((2-hydroxyethyl)amino)-6a,8a,9-trimethyl-2,2a,3,4,5,6,6a,6b,7,8,8a,8b,11a,12,12a,12b-hexadecahydro-1H-naphtho[2′,1′:4,5]indeno[2,1-b]furan-10-yl)-2-methylbutyl)carbamate], the Percent change in total protein at 0.03 µM in the assay with C2C12 skeletal myotubes (0.03 μM) came out at 10.3 ± 2.7%. Besides, in the assay on C2C12 skeletal myotubes (0.1 μM), the Percent change in total protein at 0.1 µM is 10.6 ± 2.2%. Moreover, the Percent change in total protein at 0.3 µM with C2C12 skeletal myotubes (0.3 μM) was 15 ± 2.2%. Further, the Percent change in total protein at 1 µM in the assay on C2C12 skeletal myotubes (1 μM) was determined as 12.9 ± 1.6%. The Percent change in total protein at 3 µM in the assay with C2C12 skeletal myotubes (3 μM) turned out to be 16.1 ± 1.6%.

Take `CC1=C(CC[C@H](C)CN)O[C@H]2C[C@H]3[C@@H]4CC[C@H]5CC(NCCO)CC[C@]5(C)[C@H]4CC[C@]3(C)[C@@H]12.Cl.Cl` (stereo partly drawn) [Example 11, 2-(((2aS,6aS,6bS,8aS,8bS,11aS,12aS,12bR)-10-((S)-4-amino-3-methylbutyl)-6a,8a,9-trimethyl-2,2a,3,4,5,6,6a,6b,7,8,8a,8b,11a,12,12a,12b-hexadecahydro-1H-naphtho[2′,1′:4,5]indeno[2,1-b]furan-4-yl)amino)ethanol dihydrochloride]: the “Percent Change in Total Protein” value is listed as −1.8 ± 2.0% with C2C12 skeletal myotubes (0.03 μM); 7.7 ± 1.5 % in the assay on C2C12 skeletal myotubes (0.1 μM); 6.3 ± 1.9 % in the assay on C2C12 skeletal myotubes (0.3 μM); 8.8 ± 2.1 % in the assay with C2C12 skeletal myotubes (1 μM); 4.9 ± 1.1 % in the assay with C2C12 skeletal myotubes (3 μM).
